The source of these data is patent publication US20210145965A1, “METHOD OF USING CHECKPOINT KINASE INHIBITOR THERAPY TO MODULATE ANTI-TUMORAL RESPONSE AGAINST CANCER AND SENSITIZE GLIOMAS TO IMMUNOTHERAPY” (NORTHWESTERN UNIVERSITY, priority 2019, published 2021).

The subject of test [1] is GL261 cells. As to the kind of experiment: Percent viability of GL261 cells treated with TMZ or iCHEK1/2. In kind it is cell-based, mouse.
Test [2] has as its system GL261 cells. The experiment in a line: Expression of MHC-I and PDL1 in GL261 cells. The test is classed as cell-based, mouse. As to conditions: 8 nM, 3 cycles (48 h/cycle), compared to TMZ or untreated.
Test [3] has as its system GL261 intracranial gliomas. As to the kind of experiment: PD1+ T cells in brain and spleen of GL261 intracranial tumor bearing mice by flow cytometry. As to conditions: 10 mg/kg i.p. on 7th and 9th day, sacrificed on 13th day. The test is classed as in vivo, C57BL/6 mice.
Test [4] has as its system GL261 cells. The experiment in a line: Western blot of DNA damage in GL261 cells. In kind it is cell-based, mouse. The settings on record: 8 nM, 48 h of treatment, compared to TMZ or untreated GL261 cells. Background: Immunoblotting shows a protein as a band on a membrane.

For `Cn1nnc2c(C(N)=O)ncn2c1=O` [TMZ, temozolomide], in test [1] (treatment for 72 h), the “concentration leading to a decrease in viability of glioma cells” value stood at 500 µM.

For the molecule `COc1cccc(OCCCN)c1-c1cc(Nc2cnc(C#N)cn2)n[nH]1` [iCHEK1/2, Prexasertib], the “expression of MHC-I (both MHC class and PDL1)” value in test [2] is “increased expression of MHC-I”. In addition, the “concentration at which viability of the GL261 cells started to be affected” value in test [1] was “less than 0.08 nM”. Moreover, the “activated T-cells pool in the peripheral compartment (spleen)” value in test [3] was “no significant difference”. For the same molecule, the “percentage of PD1+ T cells in the brain” value in test [3] (compared to TMZ or vehicle) is given as “decrease in the percentage of PD1+ T cells”. The “DNA damage signal (western blot)” value in test [4] is on record as “intense signal of DNA damage”.
